Species: Rattus norvegicus
Assay: DrugMatrix - Regimen: Daily Repeat
Assay type: toxicity, organism-based, Sprague-Dawley
Design: regimen Daily Repeat, gender Male, age 6-8 weeks
Conditions: in vivo, po, route oral GAVAGE, vehicle .5 % CMC; for ABSOLUTE BASOPHIL / ABSOLUTE EOSINOPHIL / ABSOLUTE LYMPHOCYTE / ABSOLUTE MONOCYTE / ABSOLUTE SEGMENTED NEUTROPHIL / BASOPHIL / EOSINOPHIL / ERYTHROCYTE COUNT / HEMATOCRIT / HEMOGLOBIN / LEUKOCYTE COUNT / LYMPHOCYTE / MEAN CORPUSCULAR HEMOGLOBIN / MEAN CORPUSCULAR HEMOGLOBIN CONCENTRATION / MEAN CORPUSCULAR VOLUME / MONOCYTE / NEUTROPHIL / NUCLEATED RED BLOOD CELLS / PLATELET COUNT: tissue Blood; for ALANINE AMINOTRANSFERASE / ALBUMIN / ALKALINE PHOSPHATASE / ASPARTATE AMINOTRANSFERASE / BLOOD UREA NITROGEN / CARBON DIOXIDE / CHLORIDE / CHOLESTEROL / CREATINE PHOSPHOKINASE / CREATININE / GLUCOSE / LACTATE DEHYDROGENASE / LIPASE / PHOSPHORUS / POTASSIUM / SODIUM / TOTAL BILIRUBIN / TOTAL PROTEIN / URIC ACID: tissue Plasma
[1] = 12 mg/kg, 72 h, dose level High, time 3 day
[2] = 12 mg/kg, 120 h, dose level High, time 5 day
[3] = […], 72 h, dose 1.2 mg/Kg, dose level Low, time 3 day
[4] = […], 120 h, dose 1.2 mg/Kg, dose level Low, time 5 day

## N[C@@H](Cc1ccc(N(CCCl)CCCl)cc1)C(=O)O
[1]
  ABSOLUTE BASOPHIL: 0 CELLS/uL
  ABSOLUTE EOSINOPHIL: 202.33 CELLS/uL
  ABSOLUTE LYMPHOCYTE: 10252.33 CELLS/uL
  ABSOLUTE MONOCYTE: 0 CELLS/uL
  ABSOLUTE SEGMENTED NEUTROPHIL: 1345.33 CELLS/uL
  BASOPHIL: 0%
  EOSINOPHIL: 1.67%
  ERYTHROCYTE COUNT: 5.67 x10E6/uL
  HEMATOCRIT: 35.43%
  HEMOGLOBIN: 13.33 G/DL
  LEUKOCYTE COUNT: 11.8 x10E3/uL
  LYMPHOCYTE: 86.67%
  MEAN CORPUSCULAR HEMOGLOBIN: 23.57 pg
  MEAN CORPUSCULAR HEMOGLOBIN CONCENTRATION: 37.63 G/DL
  MEAN CORPUSCULAR VOLUME: 62.57 fL
  MONOCYTE: 0%
  NEUTROPHIL: 11.67%
  NUCLEATED RED BLOOD CELLS: 0 /100WBC
  PLATELET COUNT: 1376 x10E3/uL
  ALANINE AMINOTRANSFERASE: 52 u/L
  ALBUMIN: 4.27 G/DL
  ALKALINE PHOSPHATASE: 346 u/L
  ASPARTATE AMINOTRANSFERASE: 88.33 u/L
  BLOOD UREA NITROGEN: 15 mg/dL
  CARBON DIOXIDE: 25.67 mmol/L
  CHLORIDE: 108.33 MEQ/L
  CHOLESTEROL: 69.67 mg/dL
  CREATINE PHOSPHOKINASE: 205 u/L
  CREATININE: 0.14 mg/dL
  GLUCOSE: 177 mg/dL
  LACTATE DEHYDROGENASE: 85.33 u/L
  LIPASE: 8.33 u/L
  PHOSPHORUS: 14 mg/dL
  POTASSIUM: 6.75 MEQ/L
  SODIUM: 147.33 MEQ/L
  TOTAL BILIRUBIN: 0.17 mg/dL
  TOTAL PROTEIN: 5.9 G/DL
  URIC ACID: 1.93 mg/dL
[2]
  ABSOLUTE BASOPHIL: 0 CELLS/uL
  ABSOLUTE EOSINOPHIL: 270.33 CELLS/uL
  ABSOLUTE LYMPHOCYTE: 13398.33 CELLS/uL
  ABSOLUTE MONOCYTE: 0 CELLS/uL
  ABSOLUTE SEGMENTED NEUTROPHIL: 1364.67 CELLS/uL
  BASOPHIL: 0%
  EOSINOPHIL: 1.67%
  ERYTHROCYTE COUNT: 5.64 x10E6/uL
  HEMATOCRIT: 35.4%
  HEMOGLOBIN: 13.53 G/DL
  LEUKOCYTE COUNT: 15.03 x10E3/uL
  LYMPHOCYTE: 89.33%
  MEAN CORPUSCULAR HEMOGLOBIN: 24.03 pg
  MEAN CORPUSCULAR HEMOGLOBIN CONCENTRATION: 38.23 G/DL
  MEAN CORPUSCULAR VOLUME: 62.83 fL
  MONOCYTE: 0%
  NEUTROPHIL: 9%
  NUCLEATED RED BLOOD CELLS: 0 /100WBC
  PLATELET COUNT: 1253 x10E3/uL
  ALANINE AMINOTRANSFERASE: 43.33 u/L
  ALBUMIN: 4.17 G/DL
  ALKALINE PHOSPHATASE: 352 u/L
  ASPARTATE AMINOTRANSFERASE: 75.67 u/L
  BLOOD UREA NITROGEN: 16 mg/dL
  CARBON DIOXIDE: 26.67 mmol/L
  CHLORIDE: 101.67 MEQ/L
  CHOLESTEROL: 68.67 mg/dL
  CREATINE PHOSPHOKINASE: 312.67 u/L
  CREATININE: 0.24 mg/dL
  GLUCOSE: 170.67 mg/dL
  LACTATE DEHYDROGENASE: 98.33 u/L
  LIPASE: 8 u/L
  PHOSPHORUS: 13.23 mg/dL
  POTASSIUM: 6.07 MEQ/L
  SODIUM: 145.27 MEQ/L
  TOTAL BILIRUBIN: 0.2 mg/dL
  TOTAL PROTEIN: 5.97 G/DL
  URIC ACID: 1.5 mg/dL
[3]
  ABSOLUTE BASOPHIL: 0 CELLS/uL
  ABSOLUTE EOSINOPHIL: 212 CELLS/uL
  ABSOLUTE LYMPHOCYTE: 11254.33 CELLS/uL
  ABSOLUTE MONOCYTE: 0 CELLS/uL
  ABSOLUTE SEGMENTED NEUTROPHIL: 1000.33 CELLS/uL
  BASOPHIL: 0%
  EOSINOPHIL: 1.67%
  ERYTHROCYTE COUNT: 5.5 x10E6/uL
  HEMATOCRIT: 35.4%
  HEMOGLOBIN: 13.5 G/DL
  LEUKOCYTE COUNT: 12.47 x10E3/uL
  LYMPHOCYTE: 90.33%
  MEAN CORPUSCULAR HEMOGLOBIN: 24.53 pg
  MEAN CORPUSCULAR HEMOGLOBIN CONCENTRATION: 38.13 G/DL
  MEAN CORPUSCULAR VOLUME: 64.3 fL
  MONOCYTE: 0%
  NEUTROPHIL: 8%
  NUCLEATED RED BLOOD CELLS: 0 /100WBC
  PLATELET COUNT: 1333.67 x10E3/uL
  ALANINE AMINOTRANSFERASE: 50 u/L
  ALBUMIN: 4.43 G/DL
  ALKALINE PHOSPHATASE: 430.67 u/L
  ASPARTATE AMINOTRANSFERASE: 84.33 u/L
  BLOOD UREA NITROGEN: 15.67 mg/dL
  CARBON DIOXIDE: 24 mmol/L
  CHLORIDE: 105.67 MEQ/L
  CHOLESTEROL: 66.67 mg/dL
  CREATINE PHOSPHOKINASE: 180.33 u/L
  CREATININE: 0.21 mg/dL
  GLUCOSE: 171.33 mg/dL
  LACTATE DEHYDROGENASE: 164 u/L
  LIPASE: 8.33 u/L
  PHOSPHORUS: 13.1 mg/dL
  POTASSIUM: 6.13 MEQ/L
  SODIUM: 147.47 MEQ/L
  TOTAL BILIRUBIN: 0.2 mg/dL
  TOTAL PROTEIN: 6.33 G/DL
  URIC ACID: 2.23 mg/dL
[4]
  ABSOLUTE BASOPHIL: 0 CELLS/uL
  ABSOLUTE EOSINOPHIL: 46.67 CELLS/uL
  ABSOLUTE LYMPHOCYTE: 6013.67 CELLS/uL
  ABSOLUTE MONOCYTE: 20.33 CELLS/uL
  ABSOLUTE SEGMENTED NEUTROPHIL: 619.33 CELLS/uL
  BASOPHIL: 0%
  EOSINOPHIL: 0.67%
  ERYTHROCYTE COUNT: 5.37 x10E6/uL
  HEMATOCRIT: 34.83%
  HEMOGLOBIN: 13.07 G/DL
  LEUKOCYTE COUNT: 6.7 x10E3/uL
  LYMPHOCYTE: 89.67%
  MEAN CORPUSCULAR HEMOGLOBIN: 24.33 pg
  MEAN CORPUSCULAR HEMOGLOBIN CONCENTRATION: 37.53 G/DL
  MEAN CORPUSCULAR VOLUME: 64.87 fL
  MONOCYTE: 0.33%
  NEUTROPHIL: 9.33%
  NUCLEATED RED BLOOD CELLS: 0 /100WBC
  PLATELET COUNT: 1151 x10E3/uL
  ALANINE AMINOTRANSFERASE: 47 u/L
  ALBUMIN: 4.33 G/DL
  ALKALINE PHOSPHATASE: 273.67 u/L
  ASPARTATE AMINOTRANSFERASE: 74.67 u/L
  BLOOD UREA NITROGEN: 14.33 mg/dL
  CARBON DIOXIDE: 29.33 mmol/L
  CHLORIDE: 101.67 MEQ/L
  CHOLESTEROL: 74.67 mg/dL
  CREATINE PHOSPHOKINASE: 206 u/L
  CREATININE: 0.18 mg/dL
  GLUCOSE: 137 mg/dL
  LACTATE DEHYDROGENASE: 89.33 u/L
  LIPASE: 8.67 u/L
  PHOSPHORUS: 11.6 mg/dL
  POTASSIUM: 5.85 MEQ/L
  SODIUM: 147.57 MEQ/L
  TOTAL BILIRUBIN: 0.2 mg/dL
  TOTAL PROTEIN: 6.17 G/DL
  URIC ACID: 0.8 mg/dL

Reference: ChEMBL document CHEMBL3885881, “DrugMatrix”
